Experimental data from PMC6594753, “Cystic fibrosis drug ivacaftor stimulates CFTR channels at picomolar concentrations” (eLife, 2019).
Converted amounts (≈) assume the structure as drawn. “And” between values parts separate entries of the source, which are not always exact repeats. Equal values may be shown once.

How the values were obtained:
[1] = Determination of Vx-770 solubility profile (incremental solvent addition; saturated saline, 1-octanol extraction, spectrophotometry at 311 nm); assay type: physicochemical; conditions: aqueous saline (standard bath solution), read-out: aqueous solubility Saq
[2] = molecular target: T1, ΔF508 CFTR (Homo sapiens, UniProt P13569, DEL508-508); test: Quasi-macroscopic current recording in excised inside-out patches from Xenopus laevis oocytes; assay type: biochemical
T1 construct: expressed in transfected cells; host or cells: Xenopus laevis oocytes injected with cRNA transcribed from mutated pGEMHE-CFTR
Text: (§1) We reasoned that this circumstance might explain some of the puzzling features of the drug, such as CFTR channel inactivation observed in some cases ([Cholon et al., 2014]), as well as apparent irreversibility of drug effects ([Jih and Hwang, 2013]; [Lin et al., 2016]; [Yeh et al., 2015]; [Yeh et al., 2017]; [Wang et al., 2014]; [Wang et al., 2018]). To investigate stability and reversibility of Vx-770 effects in a concentration range that can be achieved in the human body during oral drug administration, we tested the effects of our 1x saturated Vx-770 solution and its dilutions in inside-out patches excised from Xenopus laevis oocytes expressing WT or mutant human CFTR channels.
(§2) The G551D and ΔF508 mutations were introduced into pGEMHE-CFTR using the QuikChange Kit (Agilent, Santa Clara, CA, USA), and confirmed by automated sequencing; cDNA was purified (HiSpeed Plasmid Midi Kit, Qiagen), transcribed in vitro (mMessage T7 Kit, ThermoFisher Scientific, Waltham, MA USA) and cRNA stored at −80°C.
(§3) Patch pipette solution contained (in mM): 136 NMDG-Cl, 2 MgCl2, 5 HEPES, pH = 7.4 with NMDG. Bath solution contained (in mM): 134 NMDG-Cl, 2 MgCl2, 5 HEPES, 0.5 EGTA, pH = 7.1 with NMDG. MgATP (2 mM) was added from a 400 mM aqueous stock solution (pH = 7.1 with NMDG). Before each experiment 300 nM catalytic subunit of PKA (Sigma-Aldrich Kft., Budapest, Hungary) was applied for ~1 min to phosphorylate CFTR channels. Vx-770 (Selleck Chemicals) was diluted into the bath solution either from a ‘1x saturated’ aqueous stock solution (see above, concentration ~62 nM), or from a commercially obtained 10 mM stock dissolved in DMSO (Selleck Chemicals). Following patch excision the patch pipette was moved into a flow chamber, and recordings were done under continuous superfusion of the cytosolic patch surface. Solution compositions were exchanged using computer-driven electronic valves (solution exchange time constant <50 ms). After each recording day perfusion tubings were extensively washed with distilled water. Although supersaturated solutions of Vx-770 were not employed here, any perfusion tubing that had ever been in contact with a given concentration of Vx-770 was subsequently used only for solutions that contained the same, or higher, concentrations of the drug. After every 5–6 experimental days the entire perfusion system was replaced. Currents were recorded at 25°C, at a membrane potential of −40 mV, digitized at 10 kHz, Gaussian-filtered at 2 kHz, and recorded to disk (Axopatch 200B, Digidata 1322A, Pclamp9 (Molecular Devices, RRID: SCR_011323)). For display purposes, currents are shown filtered at 10 Hz and sampled at 20 Hz, and expanded single-channel traces (Figure 2b, Figure 4d) are shown filtered at 50 Hz and sampled at 250 Hz.
(§4) Vx-770 was applied after currents elicited by 2 mM ATP had stabilized. To allow for full development of its potentiator effect, Vx-770 was superfused until the current reached steady state which, for low nanomolar Vx-770, required up to 5–6 min. After full stimulation, Vx-770 was washed off for at least 5 min to allow the current to decline to a post-drug steady state. Fractional current stimulation by Vx-770 (I/Icontrol) was calculated as the mean steady current in the presence of the drug, divided by the average of the pre- and post-drug mean steady currents. Dose response curves (Figure 3c,f) were least-squares fitted to the modified Hill equation I/Icontrol=(K0.5^n+(Imax/Icontrol)[Vx-770]^n)/(K0.5^n+[Vx-770]^n), with Imax/Icontrol, K0.5, and n as free parameters.
(§5) To obtain apparent deactivation rates, current decay time courses following Vx-770 removal were fitted by single exponentials using least squares, and deactivation rates defined as the inverse of the decay time constant (1/τoff; Figure 4c). To obtain apparent activation rates, current activation time courses upon Vx-770 addition were fitted to an empirical three-step kinetic scheme S1→S2→S3→S4. […]

[3] = molecular target: T2, G551D CFTR (Homo sapiens, UniProt P13569, G551D); test: as above; assay type: biochemical
T2 construct: expressed in transfected cells; host or cells: Xenopus laevis oocytes injected with cRNA transcribed from mutated pGEMHE-CFTR
Text: as §1, §2, §3, §4, §5

[4] = diluted from 1x saturated aqueous stock, 2 mM ATP, read-out: K0.5 for current stimulation

T1 sequence (P13569 with tags, fused parts or gaps DEL508-508): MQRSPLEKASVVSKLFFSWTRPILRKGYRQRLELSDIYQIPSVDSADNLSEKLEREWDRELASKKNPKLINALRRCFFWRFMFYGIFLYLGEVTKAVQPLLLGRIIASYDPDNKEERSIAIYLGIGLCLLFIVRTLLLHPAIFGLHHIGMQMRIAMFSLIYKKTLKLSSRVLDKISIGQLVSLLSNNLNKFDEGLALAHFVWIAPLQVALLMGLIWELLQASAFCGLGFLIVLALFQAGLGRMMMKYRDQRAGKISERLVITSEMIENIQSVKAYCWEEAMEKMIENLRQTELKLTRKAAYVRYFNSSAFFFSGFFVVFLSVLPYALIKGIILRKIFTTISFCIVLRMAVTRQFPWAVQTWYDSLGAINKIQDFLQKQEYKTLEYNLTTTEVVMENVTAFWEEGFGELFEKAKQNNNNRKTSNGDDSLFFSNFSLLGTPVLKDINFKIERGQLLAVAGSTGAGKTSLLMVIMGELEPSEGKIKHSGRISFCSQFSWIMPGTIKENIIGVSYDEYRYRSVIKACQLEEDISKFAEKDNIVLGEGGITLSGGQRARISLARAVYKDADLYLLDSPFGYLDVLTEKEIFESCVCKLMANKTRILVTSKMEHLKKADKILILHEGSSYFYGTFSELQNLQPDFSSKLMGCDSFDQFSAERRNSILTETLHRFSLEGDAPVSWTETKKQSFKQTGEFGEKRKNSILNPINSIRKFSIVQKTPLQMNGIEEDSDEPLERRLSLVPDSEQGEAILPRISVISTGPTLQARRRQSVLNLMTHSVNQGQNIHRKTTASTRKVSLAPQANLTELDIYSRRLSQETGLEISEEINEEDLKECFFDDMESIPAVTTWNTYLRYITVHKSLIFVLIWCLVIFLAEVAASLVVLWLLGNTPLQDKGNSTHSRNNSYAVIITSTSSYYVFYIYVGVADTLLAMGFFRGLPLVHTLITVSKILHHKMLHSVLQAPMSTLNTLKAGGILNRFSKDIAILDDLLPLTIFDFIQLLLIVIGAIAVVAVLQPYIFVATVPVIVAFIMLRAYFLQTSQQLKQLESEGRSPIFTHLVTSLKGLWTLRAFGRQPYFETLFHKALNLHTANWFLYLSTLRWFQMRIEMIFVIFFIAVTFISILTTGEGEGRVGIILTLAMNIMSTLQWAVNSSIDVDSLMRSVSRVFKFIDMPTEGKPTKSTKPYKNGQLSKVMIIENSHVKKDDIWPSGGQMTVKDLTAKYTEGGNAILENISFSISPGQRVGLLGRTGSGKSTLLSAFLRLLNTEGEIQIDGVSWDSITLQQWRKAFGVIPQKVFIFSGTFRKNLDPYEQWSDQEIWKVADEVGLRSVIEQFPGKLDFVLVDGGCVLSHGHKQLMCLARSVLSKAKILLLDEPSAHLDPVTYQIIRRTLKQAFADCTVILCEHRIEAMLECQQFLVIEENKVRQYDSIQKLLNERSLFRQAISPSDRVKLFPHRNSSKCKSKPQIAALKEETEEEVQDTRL
T2 sequence (P13569 whole entry G551D): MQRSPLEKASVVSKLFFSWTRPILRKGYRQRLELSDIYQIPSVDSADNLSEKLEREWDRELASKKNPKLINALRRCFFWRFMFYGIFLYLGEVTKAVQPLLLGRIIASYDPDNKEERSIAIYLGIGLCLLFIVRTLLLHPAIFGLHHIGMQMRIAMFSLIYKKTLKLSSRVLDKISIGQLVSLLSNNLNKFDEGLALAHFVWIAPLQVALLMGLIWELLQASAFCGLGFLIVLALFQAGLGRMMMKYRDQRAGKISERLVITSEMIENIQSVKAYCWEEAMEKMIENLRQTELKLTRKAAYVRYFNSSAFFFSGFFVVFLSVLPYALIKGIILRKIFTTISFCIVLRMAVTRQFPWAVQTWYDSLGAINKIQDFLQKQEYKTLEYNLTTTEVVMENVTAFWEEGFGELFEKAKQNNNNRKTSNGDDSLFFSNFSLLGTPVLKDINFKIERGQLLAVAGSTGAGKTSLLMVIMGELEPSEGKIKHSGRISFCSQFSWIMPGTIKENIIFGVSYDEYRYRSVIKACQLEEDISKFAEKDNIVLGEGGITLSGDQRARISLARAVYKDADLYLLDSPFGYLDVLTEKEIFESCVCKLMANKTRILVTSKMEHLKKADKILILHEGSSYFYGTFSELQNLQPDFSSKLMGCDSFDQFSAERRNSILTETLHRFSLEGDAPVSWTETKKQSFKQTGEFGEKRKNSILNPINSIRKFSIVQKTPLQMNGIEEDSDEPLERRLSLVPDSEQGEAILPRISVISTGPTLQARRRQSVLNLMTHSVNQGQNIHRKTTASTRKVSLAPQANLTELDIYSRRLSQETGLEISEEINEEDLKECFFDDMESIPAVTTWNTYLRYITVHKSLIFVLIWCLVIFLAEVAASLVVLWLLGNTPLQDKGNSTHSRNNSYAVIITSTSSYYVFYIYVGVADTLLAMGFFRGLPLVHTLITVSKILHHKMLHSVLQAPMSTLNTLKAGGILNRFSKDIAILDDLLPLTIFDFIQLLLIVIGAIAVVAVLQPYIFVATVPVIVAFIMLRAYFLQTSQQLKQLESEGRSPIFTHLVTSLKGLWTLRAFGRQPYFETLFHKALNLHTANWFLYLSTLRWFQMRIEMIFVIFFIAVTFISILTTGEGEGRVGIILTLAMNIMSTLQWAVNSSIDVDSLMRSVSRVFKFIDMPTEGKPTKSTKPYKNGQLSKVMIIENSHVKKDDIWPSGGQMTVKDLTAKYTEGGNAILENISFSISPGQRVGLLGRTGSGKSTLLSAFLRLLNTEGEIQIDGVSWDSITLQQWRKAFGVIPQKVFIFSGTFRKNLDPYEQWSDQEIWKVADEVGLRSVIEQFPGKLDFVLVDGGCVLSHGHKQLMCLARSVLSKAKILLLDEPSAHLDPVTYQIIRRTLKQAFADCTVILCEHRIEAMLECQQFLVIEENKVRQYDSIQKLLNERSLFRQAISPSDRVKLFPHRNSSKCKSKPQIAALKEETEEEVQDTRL

## CC(C)(C)c1cc(C(C)(C)C)c(NC(=O)c2c[nH]c3ccccc3c2=O)cc1O [Vx-770, ivacaftor]
[1]; pH 7.1, 37°C, pH = 7.1, aqueous saline
  solubility: 0.138 ± 0.001 µM (≈ 0.0542 µg/mL)
[1]; pH 7.4, 25°C, pH = 7.4, aqueous saline
  solubility at 24 h: 0.05 ± 0.001 µM (≈ 0.0196 µg/mL)
[2]
  Hill coefficient: 1.12±0.07
  reversibility of current stimulation: fully reversible
  time constant of reversal: ~ 2 min
[2]; [4]
  EC50: 1.53 nM and ~1.5 nM
[3]
  Hill coefficient: 1.22±0.10
  potency higher than previously reported: ~ 200 fold
  reversibility of current stimulation: fully reversible
  time constant of reversal: ~ 2 min
[3]; [4]
  EC50: 1.42 nM and ~1.5 nM
